# Assay results taken from PubChem BioAssay (NCI).
#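 Cultured in 96-well plates, cells were exposed to test compound for 48 hours across five concentrations. Here, GI50 denotes the concentration required for 50% inhibition of growth. TGI: concentration producing complete growth inhibition.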
# Legend:
# Experiment in all cases: growth of human tumour cells (NCI), 48 h
# A549 NSCLC = test system: A549 NSCLC
# ACHN renal = test system: ACHN renal
# CAKI-1 renal = test system: CAKI-1 renal
# CCRF-CEM leukemia = test system: CCRF-CEM leukemia
# HCT-15 colon = test system: HCT-15 colon
# HT29 colon = test system: HT29 colon
# NCI-H460 lung = test system: NCI-H460 lung
# NCI/ADR-RES ovarian = test system: NCI/ADR-RES ovarian
# SK-MEL-28 melanoma = test system: SK-MEL-28 melanoma
# SW-620 colon = test system: SW-620 colon
SMILES,GI50 (A549 NSCLC),TGI (A549 NSCLC),GI50 (ACHN renal),TGI (ACHN renal),GI50 (CAKI-1 renal),TGI (CAKI-1 renal),GI50 (CCRF-CEM leukemia),TGI (CCRF-CEM leukemia),GI50 (HCT-15 colon),TGI (HCT-15 colon),GI50 (HT29 colon),TGI (HT29 colon),GI50 (NCI-H460 lung),TGI (NCI-H460 lung),GI50 (NCI/ADR-RES ovarian),TGI (NCI/ADR-RES ovarian),GI50 (SK-MEL-28 melanoma),TGI (SK-MEL-28 melanoma),GI50 (SW-620 colon),TGI (SW-620 colon)
CCOC(=O)C#Cc1c(C(=O)OCC)nnn1[C@@H]1O[C@H](CO)[C@H]2OC3(CCCCC3)O[C@H]21,19.9 µM,35.8 µM,1.8 µM,3.41 µM,1.76 µM,3.31 µM,1.62 µM,4.85 µM,1.87 µM,3.53 µM,1.93 µM,3.77 µM,13.4 µM,28.9 µM,7.27 µM,29.8 µM,2.06 µM,4.51 µM,1.81 µM,3.64 µM
COc1cc2nc(-c3cccc4cccnc34)nc(NC3CCN(Cc4ccccc4)CC3)c2cc1OC,0.56 µM,1.94 µM,0.773 µM,2.08 µM,1.37 µM,2.98 µM,0.576 µM,2.83 µM,1.11 µM,2.43 µM,0.419 µM,1.85 µM,0.351 µM,1.23 µM,2.1 µM,5.61 µM,1.82 µM,3.6 µM,0.509 µM,2.01 µM
CCc1nc2cc(/C=C/C(=O)NO)ccc2c(=O)n1CCc1ccc(OC)cc1,3.56 µM,15.1 µM,1.85 µM,4.36 µM,2.98 µM,10.7 µM,3.17 µM,> 100 µM,3.24 µM,> 100 µM,2.31 µM,49.5 µM,1.83 µM,10.1 µM,1.35 µM,12.3 µM,3.31 µM,15.1 µM,1.93 µM,13 µM
COc1ccc(-c2nn3ncccc3c2-c2ccnc(Nc3ccc4c(c3)OCCO4)n2)cc1,8.41 µM,> 25 µM,2.86 µM,> 25 µM,2.7 µM,> 24.1 µM,6.07 µM,> 25 µM,6.89 µM,> 25 µM,4.29 µM,> 23.8 µM,8.74 µM,> 25 µM,7.52 µM,> 25 µM,16.9 µM,> 25 µM,14.4 µM,> 25 µM
Cn1cc(C2=C(c3ccccc3C(F)(F)F)C(=O)NC2=O)c2ccccc21,7.89 µM,> 25 µM,8.06 µM,> 25 µM,6.6 µM,> 25 µM,4.86 µM,> 25 µM,9.59 µM,> 25 µM,6.22 µM,> 25 µM,9.18 µM,> 25 µM,9.53 µM,> 25 µM,14.6 µM,> 25 µM,10.2 µM,> 25 µM
O=C(CN(/C=C/C(=O)C(F)(F)F)c1ccccc1)c1ccc(Cl)cc1,21.1 µM,77.5 µM,21.7 µM,56.3 µM,17.8 µM,42.5 µM,21 µM,49.9 µM,19.2 µM,46 µM,34.5 µM,> 100 µM,16.1 µM,38.2 µM,17.6 µM,36 µM,20.7 µM,44.6 µM,22.1 µM,45.8 µM
COc1ccc(-c2nsc3c2NC(=O)CC3c2cccc(Cl)c2)cc1 (stereo unspecified),0.987 µM,> 100 µM,7.5 µM,> 100 µM,0.981 µM,70.1 µM,2.44 µM,> 100 µM,0.646 µM,> 100 µM,0.377 µM,4.91 µM,1.22 µM,> 100 µM,0.604 µM,> 100 µM,4.54 µM,> 100 µM,0.497 µM,> 100 µM
CCN(CC)c1ccc(/C=N/NC(=O)CSc2nc3ccccc3c(=O)n2Cc2ccc(S(N)(=O)=O)cc2)c(O)c1,1.57 µM,> 100 µM,1.58 µM,> 100 µM,1.02 µM,> 100 µM,0.196 µM,> 100 µM,3.62 µM,> 100 µM,3.01 µM,> 100 µM,0.425 µM,> 100 µM,> 100 µM,> 100 µM,1.62 µM,> 100 µM,0.949 µM,> 100 µM
CCOc1ccc(N=Cc2ccnc3ccccc23)cc1,,> 100 µM,,> 100 µM,,> 100 µM,,36.5 µM,,> 87.9 µM,,> 100 µM,,> 100 µM,,> 100 µM,,> 100 µM,,> 100 µM
COc1ccc2c(c1)CCc1c(CO)c(COC(=O)NC(C)C)n(C)c1-2,,> 78.5 µM,,53.1 µM,,77.8 µM,,12.5 µM,,60.8 µM,,13.5 µM,,26.5 µM,,59.2 µM,,28.6 µM,,19.3 µM
COc1ccc(-c2nc(N)c(C#N)c3c2CCOc2c-3ccc3ccccc23)cc1,28 µM,76.7 µM,10.1 µM,22.6 µM,3.32 µM,19.6 µM,> 100 µM,> 100 µM,59.4 µM,> 100 µM,52.7 µM,> 100 µM,16.3 µM,> 100 µM,17.5 µM,57.8 µM,12.1 µM,79.1 µM,,
Cc1nc(Sc2nc3ccc([N+](=O)[O-])cc3s2)sc1C,10.4 µM,22.7 µM,1.61 µM,3.81 µM,1.9 µM,8.03 µM,0.477 µM,6.18 µM,0.731 µM,3.51 µM,1.64 µM,4.23 µM,0.894 µM,6.26 µM,1.63 µM,5.45 µM,1.77 µM,4.76 µM,0.482 µM,3.53 µM
CC[C@@H](O)C[C@H]1CCC[C@@]2(C[C@@H]3OC(=O)/C=C/[C@@](C)(O)[C@@H](O)[C@H](C)[C@@H](O)[C@H](OC4CCC(N(C)C)C(C)O4)[C@@H](O)[C@](C)(O)CCCCC/C=C/[C@@H]4CC(C)(C)O[C@@]4(O)C[C@H](O2)[C@H]3C)O1 (stereo partly specified),,20.5 µM,,17.6 µM,,20.2 µM,,> 100 µM,,29.2 µM,,> 39.7 µM,,46.8 µM,,24 µM,,36.8 µM,,53.6 µM
COc1cc(CN(c2ccc(C)cc2)C2OC(=O)c3ccccc32)cc(OC)c1OC (stereo unspecified),0.584 µM,> 100 µM,3.21 µM,> 100 µM,0.472 µM,> 100 µM,0.375 µM,> 100 µM,0.568 µM,> 100 µM,0.355 µM,> 100 µM,0.453 µM,> 100 µM,0.389 µM,> 100 µM,0.855 µM,> 100 µM,,
